Laboratory results from PMC9820444, “Design and Synthesis of Acridine-Triazole and Acridine-Thiadiazole Derivatives and Their Inhibitory Effect against Cancer Cells” (International Journal of Molecular Sciences, 2022).
Read-outs that look alike come from different tables or passages of the source. Marks after values point to notes of the source that are not given here.

Columns and labels:
zebrafish embryos = system: zebrafish embryos; set-up: mortality rate of zebrafish embryos: dose or concentration left out as unconfirmed; details: for MAR (malformation rate) / MOR (mortality rate): zebrafish embryos 72 hpf
MGC80-3 cells [1] = experiment: Cell cycle analysis by flow cytometry, MGC80-3; format: cell-based, human; details: MGC80-3, 5.52 μM (IC50), 48 h; control 8.91%
Procedure: Compared to control, both compounds 4h and 5d interfered with the cell cycles of T24 and MGC80-3 cells, respectively.
(§1) The apoptosis assay and the cell cycle analysis were carried out by cytometry (FACSVerse, BD, Piscataway, NJ, USA) at an excitation wavelength of 488 nm according to the method described in the literature with slight modifications. The cells were seeded at 2 × 10^6/well and washed by cold PBS. The buffer solutions were prepared using 0.1 M pH 7.4 Hepes/NaOH, 1.4 M NaCl, and 25 mM CaCl2.

[2] = system: large cell lung cancer cells (NCI-H460); experiment: MTT antiproliferative assay, NCI-H460; format: cell-based, human; details: Homo sapiens, read-out: Effect against cell viability (IC50), NCI-H460
[3] = system: subintestinal veins (SIVs) in zebrafish embryos; experiment: Zebrafish angiogenesis assay (subintestinal veins, NBT/BCIP staining); format: in vivo; details: 1 mg/mL
Text: Currently, the zebrafish has emerged as a valuable model organism to substitute traditional models for studying angiogenesis inhibitors. The genes of zebrafish show 70–80% similarity to humans, and the vascular structure of zebrafish has high similarity to that of other vertebrates. Therefore, the subintestinal veins (SIVs) in the zebrafish embryos are used as evaluation indicators for anti-angiogenesis inhibitors. In this study, NBT/BCIP vascular staining was used to observe the angiogenesis effect of representative drugs (4h, 4f, 5d, 5h, 6g and 6h) in a zebrafish model. […] Compared with the blank control group, the area of the meshed pattern vessel and the number of vascular branches in the network decreased after the administration of compounds 4h, 5d, 5h and 6h.
The 24 hpf zebrafish embryos were dechorionated with a 1 gL^−1 pronase treatment and maintained in distilled water in 12-well cell culture plates (each well contained 20 embryos). A negative control group containing zebrafish embryos in distilled water and a vehicle treatment group that was treated with 2% dimethyl sulfoxide (DMSO) were prepared. The anti-angiogenic compounds were diluted to 1 mg/mL. After incubating at 28 °C for […], the embryos were immersed in 4% paraformaldehyde and dehydrated by gradient ethanol. Subsequently, the embryos were balanced in NTMT buffer (5 M NaCl + 1 M Tris [pH 9.0–9.5] + 1 M MgCl2+ 10% Tween), and nitrotetrazolium blue chloride (NBT) and p-toluidine salt (BCIP) staining were performed. To evaluate the effect of compounds on the angiogenesis of zebrafish embryos, the growth of embryonic sub-intestinal veins (SIVs) at 72 hpf was observed using an IX71 Olympus microscope (Hamburger, Germany). The length of the SIVs was calculated using the image J 1.8.0 software (Bethesda, MD, USA).

[4] = system: bladder cancer cells (T24); experiment: MTT antiproliferative assay, T24; format: cell-based, human; details: Homo sapiens, read-out: Effect against cell viability (IC50), T24
[5] = system: human foreskin fibroblasts (HFF); experiment: MTT antiproliferative assay, HFF; format: cell-based; details: Homo sapiens, Fibroblast, read-out: Effect against cell viability (IC50), HFF
[6] = system: human gastric cancer cells-803 (MGC-803); experiment: MTT antiproliferative assay, MGC-803; format: cell-based; details: Homo sapiens, MGC-803, MTT, read-out: Effect against cell viability (IC50), MGC-803
[7] = system: human normal liver cells (LO2); experiment: Cytotoxicity against normal liver cells LO2; format: cell-based; details: Homo sapiens, MTT, read-out: Effect against cell viability (IC50), LO2
MGC80-3 cells [8] = experiment: Apoptosis by Annexin V-FITC/PI flow cytometry, MGC80-3; format: cell-based, human; details: for apoptosis percentage (early and late): control 0.586%
Procedure: The apoptosis ratios of MGC80-3 or T24 cell lines induced by the selected compounds at the concentration of IC50 and 0.5 IC50 were quantitatively determined by flow cytometry. Four quadrant images (Q1, Q2, Q3 and Q4) were observed by flow cytometric analysis. […] […] After treatment with compound 6h, 5.62% (3.43 μM) and 14.25% (6.85 μM) of the cells were apoptotic. These were higher percentages than the one observed in the control (0.586%). […] The results evidently illustrate that representative compounds 5d and 6h or 4h and 6h could suppress cell proliferation by inducing apoptosis in the early apoptotic period.
as §1

[9] = system: hepatocellular carcinoma bel-7404 (BEL-7404); experiment: MTT antiproliferative assay, BEL-7404; format: cell-based, human; details: Homo sapiens, read-out: Effect against cell viability (IC50), BEL-7404

## COc1ccc2nc3ccccc3c(-n3c(-c4ccc([N+](=O)[O-])cc4)n[nH]c3=S)c2c1 [5d, 4-(2-methoxyacridin-9-yl)-5-(4-nitrophenyl)-2,4-dihydro-3H-1,2,4-triazole-3-thione]
Zebrafish embryos
  mortality rate of zebrafish embryos: ~0%
Zebrafish embryos; 2.0 mg.L^−1
  malformation rate of zebrafish embryos: less than 15%
Zebrafish embryos; 1 mg/mL
  MAR (malformation rate): 5% ^b
  MOR (mortality rate): 0%
Zebrafish embryos; 1.5 mg/mL
  MAR (malformation rate): 10% ^a
  MOR (mortality rate): 0%
Zebrafish embryos; 2 mg/mL
  MAR (malformation rate): 10% ^c
  MOR (mortality rate): 0%
MGC80-3 cells [1]
  G2 phase population: 13.32%
[2]
  IC50: 19.4 ± 1.58 µM
[3]; 72 hpf zebrafish embryos
  reduction in the vessel length (SIVs) compared to the mean vessel length for the controls: ~50%
[3]; zebrafish embryos, compared with blank control group
  area of the meshed pattern vessel and number of vascular branches in the network: decreased
[4]
  IC50: 15.9 ± 1.38 µM
[5]
  IC50: 62.9 ± 1.9 µM
[6]
  IC50: 5.52 ± 1.04 µM
[7]
  IC50: 51.8 ± 3.46 µM
MGC80-3 cells [8]; MGC80-3, 0.5 IC50 (5d 2.76 μM; 6h 3.43 μM)
  apoptosis percentage (early and late): 6.616%
MGC80-3 cells [8]; MGC80-3, IC50 (5d 5.52 μM; 6h 6.85 μM), 24 h, control 93.0%
  Q4 (live) cells: 81.2%
MGC80-3 cells [8]; MGC80-3, IC50 (5d 5.52 μM; 6h 6.85 μM)
  apoptosis percentage (early and late): 17.51%
[9]
  IC50: 25.1 ± 2.89 µM
